Test results taken from patent publication US8940897B2, “1,3,4-oxadiazole and 1,3,4-thiadiazole β-lactamase inhibitors” (priority 2012, dated 2015).
Where a name gives a salt, the structure may show the parent alone.

How the values were obtained:
[1] = tested on: bacterial strains that express KPC β-lactamases; assay: Synergy MIC / standard BLI potentiation MIC assay, strains expressing KPC β-lactamases; assay type: cell-based; settings: for at least one KPC strain and/or a better spectrum of activity against KPC strains than Avibactam; in the presence of a β-lactam
Summary of the method: (§1)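 CLSI broth microdilution in CAMHB, ~10^5 CFU/mL, 18–20 h at 37 °C with aeration; engineered E. coli kept on 25 μg/mL tetracycline. Potentiation: β-lactam 128–0.13 μg/mL with BLI fixed at 4 μg/mL; synergy MIC: BLI serially diluted with fixed β-lactam. MIC is the lowest concentration without visible turbidity.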

[2] = tested on: bacterial strains that express the class D cephalosporinase OXA-15; assay: Synergy MIC / standard BLI potentiation MIC assay, strains expressing OXA-15;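 note: more active means a lower MIC or sMIC than Avibactam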; assay type: cell-based, E. coli; settings: in the presence of a β-lactam; comparator Avibactam (CCC)
Summary of the method: as §1

Structure (SMILES) | activity against bacterial strains that express KPC β-lactamase compared with Avibactam [1] | activity against bacterial strains that express OXA-15 β-lactamase compared with Avibactam [2]
N[C@@H]1CN[C@H](c2nnc([C@@H]3CC[C@@H]4CN3C(=O)N4OS(=O)(=O)O)o2)C1 [Compound 760, (2S,5R)-2-(5-((2S,4S)-4-aminopyrrolidin-2-yl)-1,3,4-oxadiazol-2-yl)-7-oxo-1,6-diazabicyclo[3.2.1]octan-6-yl hydrogen sulfate] | more active than Avibactam | more active than Avibactam
N[C@H]1CN[C@@H](c2nnc([C@@H]3CC[C@@H]4CN3C(=O)N4OS(=O)(=O)O)o2)C1 [Compound 761, (2S,5R)-2-(5-((2R,4R)-4-aminopyrrolidin-2-yl)-1,3,4-oxadiazol-2-yl)-7-oxo-1,6-diazabicyclo[3.2.1]octan-6-yl hydrogen sulfate] | more active than Avibactam | more active than Avibactam
N[C@H]1CN[C@H](c2nnc([C@@H]3CC[C@@H]4CN3C(=O)N4OS(=O)(=O)O)o2)C1 [Compound 762, (2S,5R)-2-(5-((2S,4R)-4-aminopyrrolidin-2-yl)-1,3,4-oxadiazol-2-yl)-7-oxo-1,6-diazabicyclo[3.2.1]octan-6-yl hydrogen sulfate] | more active than Avibactam | more active than Avibactam
N[C@@H]1CN[C@@H](c2nnc([C@@H]3CC[C@@H]4CN3C(=O)N4OS(=O)(=O)O)o2)C1 [Compound 763, (2S,5R)-2-(5-((2R,4S)-4-aminopyrrolidin-2-yl)-1,3,4-oxadiazol-2-yl)-7-oxo-1,6-diazabicyclo[3.2.1]octan-6-yl hydrogen sulfate] | more active than Avibactam | more active than Avibactam
O=C1N2C[C@@H](CC[C@H]2c2nnc(CC3CCNC3)o2)N1OS(=O)(=O)O (stereo partly drawn) [Compound 764, (2S,5R)-7-oxo-2-(5-(pyrrolidin-3-ylmethyl)-1,3,4-oxadiazol-2-yl)-1,6-diazabicyclo[3.2.1]octan-6-yl hydrogen sulfate] | more active than Avibactam | more active than Avibactam
O=C1N2C[C@@H](CC[C@H]2c2nnc(CN[C@H]3CCNC3)o2)N1OS(=O)(=O)O [Compound 765, (2S,5R)-7-oxo-2-(5-(((S)-pyrrolidin-3-ylamino)methyl)-1,3,4-oxadiazol-2-yl)-1,6-diazabicyclo[3.2.1]octan-6-yl hydrogen sulfate] | more active than Avibactam | more active than Avibactam
O=C1N2C[C@@H](CC[C@H]2c2nnc(CN[C@@H]3CCNC3)o2)N1OS(=O)(=O)O [Compound 766, (2S,5R)-7-oxo-2-(5-(((R)-pyrrolidin-3-ylamino)methyl)-1,3,4-oxadiazol-2-yl)-1,6-diazabicyclo[3.2.1]octan-6-yl hydrogen sulfate] | more active than Avibactam | more active than Avibactam
N=C1NCC(c2nnc([C@@H]3CC[C@@H]4CN3C(=O)N4OS(=O)(=O)O)o2)N1 (stereo partly drawn) [Compound 767, (2S,5R)-2-(5-(2-iminoimidazolidin-4-yl)-1,3,4-oxadiazol-2-yl)-7-oxo-1,6-diazabicyclo[3.2.1]octan-6-yl hydrogen sulfate] | more active than Avibactam | more active than Avibactam
N[C@H]1CC[C@@H](c2nnc([C@@H]3CC[C@@H]4CN3C(=O)N4OS(=O)(=O)O)o2)C1 [Compound 768, (2S,5R)-2-(5-((1R,3S)-3-aminocyclopentyl)-1,3,4-oxadiazol-2-yl)-7-oxo-1,6-diazabicyclo[3.2.1]octan-6-yl hydrogen sulfate] | more active than Avibactam | more active than Avibactam
O=C1N2C[C@@H](CC[C@H]2c2nnc(CCNC3CCNCC3)o2)N1OS(=O)(=O)O [Compound 770, (2S,5R)-7-oxo-2-(5-(2-(piperidin-4-ylamino)ethyl)-1,3,4-oxadiazol-2-yl)-1,6-diazabicyclo[3.2.1]octan-6-yl hydrogen sulfate] | more active than Avibactam | more active than Avibactam
O=C1N2C[C@@H](CC[C@H]2c2nnc(CCCNC3CCNCC3)o2)N1OS(=O)(=O)O [Compound 771, (2S,5R)-7-oxo-2-(5-(3-(piperidin-4-ylamino)propyl)-1,3,4-oxadiazol-2-yl)-1,6-diazabicyclo[3.2.1]octan-6-yl hydrogen sulfate] | more active than Avibactam | more active than Avibactam
O=C1N2C[C@@H](CC[C@H]2c2nnc(CCCCNC3CCNCC3)o2)N1OS(=O)(=O)O [Compound 772, (2S,5R)-7-oxo-2-(5-(4-(piperidin-4-ylamino)butyl)-1,3,4-oxadiazol-2-yl)-1,6-diazabicyclo[3.2.1]octan-6-yl hydrogen sulfate] | more active than Avibactam | more active than Avibactam
NC1CCN(Cc2nnc([C@@H]3CC[C@@H]4CN3C(=O)N4OS(=O)(=O)O)o2)CC1 [Compound 774, (2S,5R)-2-(5-((4-aminopiperidin-1-yl)methyl)-1,3,4-oxadiazol-2-yl)-7-oxo-1,6-diazabicyclo[3.2.1]octan-6-yl hydrogen sulfate] | more active than Avibactam | more active than Avibactam
O=C1N2C[C@@H](CC[C@H]2c2nnc(CCN3CCNCC3)o2)N1OS(=O)(=O)O [Compound 776, (2S,5R)-7-oxo-2-(5-(2-(piperazin-1-yl)ethyl)-1,3,4-oxadiazol-2-yl)-1,6-diazabicyclo[3.2.1]octan-6-yl hydrogen sulfate] | more active than Avibactam | more active than Avibactam
O=C1N2C[C@@H](CC[C@H]2c2nnc(CN3CCNCC3)o2)N1OS(=O)(=O)O [Compound 777, (2S,5R)-7-oxo-2-(5-(piperazin-1-ylmethyl)-1,3,4-oxadiazol-2-yl)-1,6-diazabicyclo[3.2.1]octan-6-yl hydrogen sulfate] | more active than Avibactam | more active than Avibactam
O=C1N2C[C@@H](CC[C@H]2c2nnc([C@H]3CNCCN3)o2)N1OS(=O)(=O)O [Compound 779, (2S,5R)-7-oxo-2-(5-((R)-piperazin-2-yl)-1,3,4-oxadiazol-2-yl)-1,6-diazabicyclo[3.2.1]octan-6-yl hydrogen sulfate] | more active than Avibactam | more active than Avibactam
N[C@H]1C[C@H](c2nnc([C@@H]3CC[C@@H]4CN3C(=O)N4OS(=O)(=O)O)s2)C1 [Compound 783, (2S,5R)-2-(5-((1r,3S)-3-aminocyclobutyl)-1,3,4-thiadiazol-2-yl)-7-oxo-1,6-diazabicyclo[3.2.1]octan-6-yl hydrogen sulfate] | more active than Avibactam | more active than Avibactam
N=C(N)N[C@H]1C[C@@H](c2nnc([C@@H]3CC[C@@H]4CN3C(=O)N4OS(=O)(=O)O)s2)C1 [Compound 784, (2S,5R)-2-(5-((1s,3R)-3-guanidinocyclobutyl)-1,3,4-thiadiazol-2-yl)-7-oxo-1,6-diazabicyclo[3.2.1]octan-6-yl hydrogen sulfate] | more active than Avibactam | more active than Avibactam
N=C(N)NCCc1nnc([C@@H]2CC[C@@H]3CN2C(=O)N3OS(=O)(=O)O)s1 [Compound 794, (2S,5R)-2-(5-(2-guanidinoethyl)-1,3,4-thiadiazol-2-yl)-7-oxo-1,6-diazabicyclo[3.2.1]octan-6-yl hydrogen sulfate] | more active than Avibactam | more active than Avibactam
N[C@H]1C[C@@H](c2nnc([C@@H]3CC[C@@H]4CN3C(=O)N4OS(=O)(=O)O)s2)C1 [Compound 795, (2S,5R)-2-(5-((1s,3R)-3-aminocyclobutyl)-1,3,4-thiadiazol-2-yl)-7-oxo-1,6-diazabicyclo[3.2.1]octan-6-yl hydrogen sulfate] | more active than Avibactam | more active than Avibactam
